{
  "source": "paper PMC7034129",
  "about": "“C-2 phenyl replacements to obtain potent quinoline-based Staphylococcus aureus NorA inhibitors” (Journal of Enzyme Inhibition and Medicinal Chemistry, 2020)",
  "key": {"SA-1199B [1]": {"test_system": "SA-1199B", "experiment": "Time-kill curves in combination with CPX", "type": "cell-based, Staphylococcus aureus", "settings": "24 h", "procedure": "(§1) Chequerboard assays and time-kill curves were performed as previously described."}, "Haemolysis assays": {"experiment": "Haemolysis assays", "type": "cell-based", "procedure": "Haemolysis assays were performed as previously described.\nIn order to evaluate the toxic effects of the derivative 37a, haemolysis assays were performed at scalar compound concentrations in comparison with the starting hit 1 (Figure 4)."}, "SA-1199B [2]": {"test_system": "SA-1199B", "experiment": "Membrane potential (polarisation) assays, BacLight kit, DiOC2(3)", "type": "cell-based, Staphylococcus aureus", "settings": "30 min", "procedure": "Membrane potential assays were carried out by measuring the effect of 1 and 37a on the membrane potential using the BacLight Bacterial Membrane Potential Kit (Molecular Probes, Life Technologies) according to the manufacturer’s instructions. Briefly, SA-1199B was grown in MHB at 37 °C until reaching an OD600 of 0.6. Bacterial cells were then washed in PBS and diluted to 1 × 10^6 CFU/mL with filtered PBS (filter 0.22 µm) in flow cytometry tubes. Ten microliters of 3 mM 3,3-diethyloxacarbocyanine iodide (DiOC2(3) in DMSO) was added to each tube (final concentration 30 µM) and mixed. Then, 1 or 37a from a stock solution in DMSO (10 mg/mL) was added to reach final concentrations of 1, 5, and 10 µg/mL. As positive control, 10 µL of 500 µM carbonyl cyanide m-chlorophenylhydrazone (CCCP, final concentration 5 µM) was used to eradicate the proton gradient by eliminating the membrane potential. The samples were analysed after 30 min by measuring the fluorescence using a cytometer Attune NxT (ThermoFisher Scientific) with a laser emitting at 488 nm and collecting in the green and red channels. The red to green fluorescence ratio was determined and normalised against the emission from the DiOC2(3) blank tube having 1 ml of the bacterial suspension and a final concentration of DiOC2(3) of 30 µM. The results are presented as the percentage of depolarised membranes compared with the drug-free control.\nSince efflux pumps need a proton gradient along the bacterial membrane, its modification/disruption can lead to an efflux inhibition. However, this effect cannot be related to a specific EPI activity; on the contrary, it relies on a non-specific interruption of the energy source (protons) that efflux pumps use to extrude their substrates by an antiport mechanism. A typical example of a compound inhibiting efflux pumps activity by this non-specific mechanism is represented by carbonyl cyanide m-chlorophenyl hydrazone (CCCP). […] Membrane polarisation was assessed by cytofluorimeter analysis using the fluorescent probe 3,3-diethyloxacarbocyanine iodide (DiOC2(3)) as its distribution is proton gradient-sensitive."}, "[3]": {"test_system": "S. aureus strain SA-1199B (norA+/GrlA mutation)", "experiment": "Synergistic assays: compounds at 25 µg/mL with scalar concentrations of CPX", "type": "cell-based, Staphylococcus aureus", "settings": "compound at 25 µg/mL", "procedure": "(§2) MICs assays were performed using broth microdilution method in 96 wells-microtiter plates, following the CLSI guidelines.\n(data not shown). […] Worthy of note, among the five active compounds, three were thiophene derivatives (35b, 36b and 37a) displaying their activity regardless of the position of the sulphur atom on the thiophene ring."}, "[4]": {"test_system": "human leukemic monocyte cell line (THP-1)", "experiment": "Cell viability assay (ATP bioluminescence)", "settings": "ratio between CC50 (THP-1) and minimum EPI concentration able to reduce by 4-fold CPX MIC", "procedure": "(§3) THP-1 cells were grown in RPMI 1640 supplemented with 10% heat-inactivated foetal calf serum, 10,000 units of penicillin, and 10 µg of streptomycin/mL overnight to confluence. […] Cell viability was then evaluated using an ATP bioluminescence kit (Via Light kit; Cambrex). Results are expressed as 50% cytotoxic concentration (CC50). The CC50 was defined as the concentration required to reduce the cell number by 50% compared to that for the untreated controls. Each concentration was tested in triplicate."}, "[5]": {"experiment": "Cell viability assay (ATP bioluminescence)", "settings": "human", "procedure": "as §3"}, "S. aureus SA-1199B": {"test_system": "S. aureus SA-1199B", "type": "cell-based, Staphylococcus aureus", "procedure": "as §2, §1"}, "SA-1199B [6]": {"test_system": "SA-1199B", "experiment": "MIC evaluation of compound alone (broth microdilution)", "type": "cell-based", "settings": "Staphylococcus aureus, read-out: antibacterial activity alone (MIC)", "procedure": "as §2\nThe sum of both FIC values led to a FIC index (FICI) < 0.27 showing a significant synergistic effect as widely recognised for FICI values <0.5[40]."}, "NorA efflux pump": {"biological_target": "T1, NorA efflux pump (Staphylococcus aureus, UniProt P0A0J7)", "T1 construct": "monitoring bacterial fluorescence of SA-1199B, overexpressing norA gene; endogenous in cells; host or cells: Staphylococcus aureus SA-1199B (norA+/GrlA mutation)", "T1 sequence (P0A0J7 whole entry)": "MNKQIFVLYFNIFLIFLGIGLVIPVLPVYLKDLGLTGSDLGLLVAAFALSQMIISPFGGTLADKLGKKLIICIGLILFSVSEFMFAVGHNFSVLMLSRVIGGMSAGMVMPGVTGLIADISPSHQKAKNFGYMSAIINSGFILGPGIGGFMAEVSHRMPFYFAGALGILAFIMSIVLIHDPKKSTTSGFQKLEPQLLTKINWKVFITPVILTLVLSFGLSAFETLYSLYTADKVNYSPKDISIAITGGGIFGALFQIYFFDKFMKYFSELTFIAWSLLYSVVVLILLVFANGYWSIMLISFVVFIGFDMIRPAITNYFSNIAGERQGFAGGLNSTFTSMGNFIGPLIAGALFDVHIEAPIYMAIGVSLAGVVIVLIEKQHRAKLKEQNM", "experiment": "EtBr efflux assays", "type": "cell-based", "settings": "read-out: EtBr efflux inhibition", "procedure": "The loss of EtBr from S. aureus SA-1199B was determined fluorometrically as previously described. The effect of various concentrations of tested compounds on the EtBr efflux of SA-1199B was compared to that in their absence, allowing the calculation of the percentage reduction in efflux.\nSince EtBr is a known NorA substrate resulting fluorescent only when inside bacterial cells, monitoring bacterial fluorescence of SA-1199B, overexpressing norA gene, through a fluorimeter is a fast method to indirectly evaluate NorA inhibition. […] Indeed, we commonly consider as active NorA EPIs those compounds having an EtBr efflux inhibition ≥70%[17]^,[18]."}, "[7]": {"test_system": "S. aureus strain SA-1199 (norA wild-type)", "experiment": "Synergistic assay with CPX against norA wild-type strain", "type": "cell-based, Staphylococcus aureus", "settings": "compound at 25 µg/mL, scalar CPX", "procedure": "as §2"}},
  "data": [
    {"smiles": "CCN(CC)CCOc1cc(-c2ccc(Cl)s2)nc2ccccc12.Cl", "note": "[Compound 37a, (2-{[2–(5-Chloro-2-thienyl)quinolin-4-yl]oxy}ethyl)diethylamine hydrochloride]", "values": [
      {"measurement": "bactericidal activity of combination (time-kill)", "setting": "SA-1199B [1]; 37a at 3.13 and 6.25 µg/mL + CPX at its MIC", "value": "strongly significant and definitely higher bactericidal activity than that shown by CPX alone"},
      {"measurement": "bactericidal effect of combination (time-kill)", "setting": "SA-1199B [1]; 37a at 3.13 and 6.25 µg/mL + CPX at ¼ MIC", "value": "the same bactericidal effect as CPX tested at its MIC"},
      {"measurement": "melting point", "value": "189 to 191", "unit": "°C"},
      {"measurement": "haemolytic effect", "setting": "Haemolysis assays; 20 µg/mL", "value": "about 10%"},
      {"measurement": "haemolytic effect relative to starting hit 1", "setting": "Haemolysis assays; 20 µg/mL", "value": 3, "unit": "fold"},
      {"measurement": "haemolytic activity", "setting": "Haemolysis assays; concentrations ≤ 5 µg/mL", "value": "below 2%"},
      {"measurement": "depolarised bacterial membrane", "setting": "SA-1199B [2]; 1 µg/mL", "value": "about 20%"},
      {"measurement": "depolarised bacterial membrane", "setting": "SA-1199B [2]; 5 µg/mL", "value": "about 20%"},
      {"measurement": "depolarised S. aureus membrane", "setting": "SA-1199B [2]; 10 µg/mL", "value": "> 50", "unit": "%"},
      {"measurement": "reduction of the CPX MIC", "setting": "[3]", "value": 32, "unit": "fold"},
      {"measurement": "SI, selectivity index", "setting": "[4]", "value": 16.2},
      {"measurement": "CC50 at 24 h", "setting": "[5]", "value": 6.33, "unit": "µg/mL"},
      {"measurement": "concentration reducing CPX MIC, fold lower than own MIC", "setting": "S. aureus SA-1199B", "value": "≥ 64", "unit": "fold"},
      {"measurement": "FIC (MIC in combination/MIC alone)", "setting": "S. aureus SA-1199B; 37a + CPX", "value": "< 0.0156"},
      {"measurement": "FIC index (FICI)", "setting": "S. aureus SA-1199B; 37a + CPX", "value": "< 0.27"},
      {"measurement": "compound concentration reducing the CPX MIC by 4-fold", "setting": "S. aureus SA-1199B; chequerboard with CPX", "value": 0.39, "unit": "µg/mL"},
      {"measurement": "CPX MIC in combination with compound", "setting": "S. aureus SA-1199B; with 37a", "value": 2.5, "unit": "µg/mL"},
      {"measurement": "MIC", "setting": "SA-1199B [6]", "value": "> 25", "unit": "µg/mL"},
      {"measurement": "inhibition at 50 µM", "setting": "NorA efflux pump", "value": "74.3 ± 3.5", "unit": "%"},
      {"measurement": "synergistic effect with CPX", "setting": "[7]", "value": "did not exhibit any significant synergistic effect"}
    ]}
  ]
}
